This is an account of results in US10426765B2, “Pharmaceutical composition containing nicotinic acid and/or nicotinamide and/or tryptophan for positively influencing the intestinal microbiota” (CONARIS RESEARCH INSTITUTE AG, priority 2012, dated 2019).

The subject of series [1] is DSS colitis in ACE2-deficient mice. The series is described as follows: DSS colitis in ACE2-deficient mice given nicotinamide or tryptophan dipeptides (Example 1). The settings on record: prophylactic and permanent administration. In kind it is in vivo. The source says:
Top row: histopathology of the colon (haematoxylin eosin staining on day 10 after DSS administration; bar: 100 μm (a)), weight loss in percent (b) and diarrhea score (c) of DSS-challenged ACE2-normal (ACE2+/y) and ACE2-deficient (ACE2-/y) mice which were given vehicle or nicotinamide (NAM) in the drinking water. The NAM administration began 3 days before the DSS administration. Bottom row: histopathology of the colon (haematoxylin eosin staining on day 7 after DSS challenge; bar: 100 μm (d)), weight loss in percent (e) and damage of the crypts of the colon (f) in DSS-challenged ACE2-normal (ACE2+/y) and ACE2-deficient (ACE2-/y) mice which received normal diet (control) or a tryptophan-dipeptide diet (Trp+). New and findings unpublished at the time the priority application was filed, since published as Hashimoto et al. (Nature 2012, 487:477), support the teachings of the present invention and are briefly described here for the purpose of illustration: It is known that the expression of the transporter for neutral amino acids B^0 AT1 (which transports tryptophan) on the surface of intestinal epithelial cells is bound to the presence of the angiotensin converting enzyme 2 (ACE2) (Kowalczuk et al. 2008, FASEB J. 22:2880; Camargo et al. 2009, Gastroenterology 136:872). […]

The subject of the next series is Crohn's disease. The series is described as follows: Crohn's disease activity index (CDAI) in patients treated with nicotinamide (Example 2). In kind it is in vivo, human. Particulars: three Crohn's disease patients. From the text: A value of CDAI<150 is equivalent to remission.
For series [2] the following is noted: cited from earlier work.

With `NC(=O)c1cccnc1` [nicotinamide], the “intensification of DSS-induced intestinal inflammation in Ace2-/y mice” value in series [1] is recorded as “reduce this effect”. Moreover, the “response of Crohn's disease activity index (CDAI)” value with Crohn's disease (conventionally formulated nicotinamide 2×600 mg daily for 4 weeks) is on record as “clear response”. Also, the “remission (CDAI<150) within the therapy period” value in the series with Crohn's disease (nicotinamide 2×600 mg daily for 4 weeks) is reported as “two of them achieved the remission”. The water solubility entry in series [2] was “high water solubility”.
